Converted amounts (≈) assume the structure as drawn. Like-named read-outs stand apart in the source and are kept apart here.
What was measured:
[1] = system: Sporothrix sp.; assay: Antifungal MIC (RPMI-1640 microdilution); type: cell-based
[2] = system: Rhizopus arrhizus; assay: Antifungal MIC (RPMI-1640 microdilution); type: cell-based
[3] = system: Saksenaea sp.; assay: Antifungal MIC (RPMI-1640 microdilution); type: cell-based
[4] = system: Apophysomyces sp.; assay: Antifungal MIC (RPMI-1640 microdilution); type: cell-based
[5] = system: P. variotii; assay: Antifungal MIC (RPMI-1640 microdilution); type: cell-based; conditions: Paecilomyces variotii, isolate MYA-3630
[6] = system: Candida glabrata; assay: Antifungal MIC (RPMI-1640 microdilution); type: cell-based; conditions: Nakaseomyces glabratus
[7] = system: Emergomyces sp.; assay: Antifungal MIC (RPMI-1640 microdilution); type: cell-based
[8] = system: C. krusei; assay: Antifungal MIC (RPMI-1640 microdilution); type: cell-based; conditions: Pichia kudriavzevii, ATCC6258, read-out: MIC 50% inhibition; isolate ATCC 6258
[9] = system: Candida auris; assay: Antifungal MIC (RPMI-1640 microdilution); type: cell-based; conditions: Candidozyma auris
[10] = system: Candida albicans; assay: Antifungal MIC (RPMI-1640 microdilution); type: cell-based
[11] = system: Cryptococcus neoformans; assay: Antifungal MIC (RPMI-1640 microdilution); type: cell-based; conditions: Cryptococcus neoformans
[12] = system: Scedosporium sp.; assay: Antifungal MIC (RPMI-1640 microdilution); type: cell-based; conditions: Scedosporium
[13] = system: Candida parapsilosis; assay: Antifungal MIC (RPMI-1640 microdilution); type: cell-based; conditions: for MIC50: Lodderomyces parapsilosis
[14] = system: Candida guilliermondii; assay: Antifungal MIC (RPMI-1640 microdilution); type: cell-based; conditions: Meyerozyma guilliermondii
[15] = system: Coccidioides sp.; assay: microbe, parasite or virus in culture; type: cell-based
[16] = system: Blastomyces dermatitidis; assay: Antifungal MIC (RPMI-1640 microdilution); type: cell-based
[17] = system: Histoplasma capsulatum; assay: microbe, parasite or virus in culture; type: cell-based
[18] = system: SARS-CoV-2; conditions: cited from earlier work
[19] = system: M. tuberculosis [ATCC #27294]; assay: MIC against M. tuberculosis in 7H9 media; type: cell-based; conditions: Mycobacterium tuberculosis, read-out: MIC

Structure (SMILES): CC[C@@H]([C@H](C)O)n1ncn(-c2ccc(N3CCN(c4ccc(OC[C@@H]5CO[C@@](Cn6cncn6)(c6ccc(F)cc6F)C5)cc4)CC3)cc2)c1=O [Posaconazole]
- MIC ([1]; read-out: MIC 100% inhibition, isolate Sporo1): 0.06 mg/L (≈ 0.0856 µM)
- MIC ([1]; read-out: MIC 100% inhibition, isolate Sporo2): 1 mg/L (≈ 1.43 µM)
- MIC ([1]; read-out: MIC 100% inhibition, isolate Sporo3): 0.06 mg/L (≈ 0.0856 µM)
- MIC ([2]; read-out: MIC 100% inhibition, isolate 99-880): 1 mg/L (≈ 1.43 µM)
- MIC ([2]; read-out: MIC 100% inhibition, isolate 99-892): 0.25 mg/L (≈ 0.357 µM)
- MIC ([2]; read-out: MIC 100% inhibition, isolate RAI): 0.125 mg/L (≈ 0.178 µM)
- MIC ([3]; read-out: MIC 100% inhibition, isolate Sak1): ≤ 0.03 mg/L
- MIC ([3]; read-out: MIC 100% inhibition, isolate Sak2): 0.06 mg/L (≈ 0.0856 µM)
- MIC ([3]; read-out: MIC 100% inhibition, isolate Sak3): ≤ 0.03 mg/L
- MIC ([4]; read-out: MIC 100% inhibition, isolate Apo1): 0.06 mg/L (≈ 0.0856 µM)
- MIC ([4]; read-out: MIC 100% inhibition, isolate Apo2): ≤ 0.03 mg/L
- MIC ([4]; read-out: MIC 100% inhibition, isolate Apo3): 0.5 mg/L (≈ 0.713 µM)
- MIC ([5]; read-out: MIC 100% inhibition): ≤ 0.03 mg/L

Structure (SMILES): OC(Cn1cncn1)(Cn1cncn1)c1ccc(F)cc1F [Fluconazole]
- MIC50 ([6]; read-out: MIC 50% inhibition, isolate 05-62): > 64 mg/L
- MIC50 ([6]; read-out: MIC 50% inhibition, isolate 05-761): 8 mg/L (≈ 26.1 µM)
- MIC50 ([6]; read-out: MIC 50% inhibition, isolate CG3): 32 mg/L (≈ 104 µM)
- MIC50 ([7]; read-out: MIC 50% inhibition, isolate Emerg2): ≤ 0.03 mg/L
- MIC50 ([7]; read-out: MIC 50% inhibition, isolate Emerg3): ≤ 0.03 mg/L
- MIC50 [8]: 32 mg/L (≈ 104 µM)
- MIC50 ([9]; read-out: MIC 50% inhibition, isolate DI17-46): > 64 mg/L
- MIC50 ([9]; read-out: MIC 50% inhibition, isolate DI17-47): > 64 mg/L
- MIC50 ([9]; read-out: MIC 50% inhibition, isolate DI17-48): 2 mg/L (≈ 6.53 µM)
- MIC50 ([10]; ATCC90028, read-out: MIC 50% inhibition, isolate ATCC 90028): 0.25 mg/L (≈ 0.816 µM)
- MIC50 ([10]; read-out: MIC 50% inhibition, isolate CA3): > 64 mg/L
- MIC50 ([10]; read-out: MIC 50% inhibition, isolate SC5314): 0.5 mg/L (≈ 1.63 µM)
- MIC50 ([11]; read-out: MIC 50% inhibition, isolate CN3): 64 mg/L (≈ 209 µM)
- MIC50 ([11]; read-out: MIC 50% inhibition, isolate H99): 16 mg/L (≈ 52.2 µM)
- MIC50 ([11]; read-out: MIC 50% inhibition, isolate USC1597): 4 mg/L (≈ 13.1 µM)
- MIC50 ([12]; read-out: MIC 50% inhibition, isolate Scedo1): 0.125 mg/L (≈ 0.408 µM)
- MIC50 ([12]; read-out: MIC 50% inhibition, isolate 00-180): 0.125 mg/L (≈ 0.408 µM)
- MIC50 ([12]; read-out: MIC 50% inhibition, isolate LPI): 4 mg/L (≈ 13.1 µM)
- MIC50 ([13]; ATCC22019, read-out: MIC 50% inhibition, isolate ATCC 22019): 1 mg/L (≈ 3.27 µM)
- MIC50 ([13]; read-out: MIC 50% inhibition, isolate CP1): 0.5 mg/L (≈ 1.63 µM)
- MIC 50% inhibition ([13]; isolate CP2): 0.5 mg/L (≈ 1.63 µM)
- MIC 50% inhibition ([13]; isolate CP3): 0.5 mg/L (≈ 1.63 µM)
- MIC50 ([14]; read-out: MIC 50% inhibition, isolate Cgui1): 1 mg/L (≈ 3.27 µM)
- MIC50 ([14]; read-out: MIC 50% inhibition, isolate Cgui2): 2 mg/L (≈ 6.53 µM)
- MIC50 ([14]; read-out: MIC 50% inhibition, isolate Cgui3): 2 mg/L (≈ 6.53 µM)
- MIC50 ([15]; read-out: MIC 50% inhibition, isolate Cocci1): 16 mg/L (≈ 52.2 µM)
- MIC50 ([15]; read-out: MIC 50% inhibition, isolate Cocci2): 32 mg/L (≈ 104 µM)
- MIC50 ([15]; read-out: MIC 50% inhibition, isolate D117-143): 4 mg/L (≈ 13.1 µM)
- MIC50 ([5]; read-out: MIC 50% inhibition): 8 mg/L (≈ 26.1 µM)
- MIC50 ([16]; read-out: MIC 50% inhibition, isolate Blasto1): ≤ 0.03 mg/L
- MIC50 ([16]; read-out: MIC 50% inhibition, isolate Blasto2): ≤ 0.03 mg/L
- MIC50 ([16]; read-out: MIC 50% inhibition, isolate Blasto3): ≤ 0.03 mg/L
- MIC50 ([17]; read-out: MIC 50% inhibition, isolate HC1): 0.125 mg/L (≈ 0.408 µM)
- MIC50 ([17]; read-out: MIC 50% inhibition, isolate HC2): ≤ 0.03 mg/L
- MIC50 ([17]; read-out: MIC 50% inhibition, isolate HC3): ≤ 0.03 mg/L

Structure (SMILES): CCN(CC)CCCC(C)Nc1ccnc2cc(Cl)ccc12 (stereo not drawn) [chloroquine]
- fold less potent in CALU-3 than in VERO cells [18]: 10 fold

Structure (SMILES): NNC(=O)c1ccncc1 [Isoniazid]
- MIC ([19]; ATCC27294, 168 h, 7H9 with BSA, DPPC and cholesterol, 1 week): 0.2 µM (≈ 0.0274 µg/mL)
- MIC ([19]; ATCC27294, 168 h, 7H9 with casitone and DPPC, 1 week): 0.07 µM (≈ 0.0096 µg/mL)
- MIC ([19]; ATCC27294, 168 h, 7H9 with glucose and BSA, 1 week): 0.2 µM (≈ 0.0274 µg/mL)
- MIC ([19]; ATCC27294, 168 h, 7H9 with glucose and casitone, 1 week): 0.1 µM (≈ 0.0137 µg/mL)
- MIC ([19]; ATCC27294, 336 h, 7H9 with BSA, DPPC and cholesterol, 2 weeks): 0.3 µM (≈ 0.0411 µg/mL)
- MIC ([19]; ATCC27294, 336 h, 7H9 with casitone and DPPC, 2 weeks): 0.1 µM (≈ 0.0137 µg/mL)
- MIC ([19]; ATCC27294, 336 h, 7H9 with glucose and BSA, 2 weeks): 0.3 µM (≈ 0.0411 µg/mL)
- MIC ([19]; ATCC27294, 336 h, 7H9 with glucose and casitone, 2 weeks): 0.15 µM (≈ 0.0206 µg/mL)

Source: patent US12691107B2, “Methods for the treatment and prevention of lung infections caused by gram-positive bacteria, fungus, or virus by administration of tafenoquine” (priority 2020, dated 2026)
